Test system: mice
Conditions: mouse, in vivo

`CN1CC[C@]23c4c5ccc(O)c4O[C@H]2[C@@H](O)C=C[C@H]3[C@H]1C5` [morphine] was tested, and the “period over which effect declines / returns to control levels” value was 5 h and the “time of maximal effect” value was 1 h.

Source: US7208466B1 (priority 1999, dated 2007)
